One data set concerns wt CHIKV. Particulars: MOI 0.005, cited from earlier work.
The next data set deals with Vero-E6 cells. The note with it: same study as IC50 against wt CHIKV; cited from earlier work.
The test system of another data set is Vero cells. The note with it: cited from earlier work.
The next data set concerns U138 cells. Kind of data set: Toxicity assay. Particulars: for cell damage in toxicity testing: non-infected U138, HCQ 10 µM, T-1105 10 and 50 µM, 4 days.
The next data set has as its system Vero-B4 cells. As to the kind of experiment: Toxicity assay. Particulars: read-out: CC50 (µM) Vero-B4; non-infected Vero-B4 cells; MTS after 4 days.
The subject of data set [1] is CHIKV Indian Ocean strain 899 (lab). The note with it: MOI 0.01, Vero cells; cited from earlier work.
Data set [2] concerns wt CHIKV^Brazil. Kind of data set: IC50 evaluation: inhibition of CHIKV-induced cell death. The class given is cell-based, Chikungunya virus. The note with it: for dose-dependent inhibition of CPE / antiviral effect in U138: U138 cells, wt CHIKV^Brazil; for IC50: Chikungunya virus, 96 h, read-out: IC50 (µM) U138.
The subject of data set [3] is wt CHIKV^Brazil. The data set is described as above. The class given is cell-based, Chikungunya virus. The note with it: for dose-dependent inhibition of CPE / efficacy in Vero-B4: Vero-B4 cells, CHIKV^Brazil, T-1105 range 5–100 µM.
Data set [4] can be described thus: Toxicity assay. Particulars: human, U138 cells (non-infected).
Data set [5] is described as follows: Toxicity assay. Particulars: African green monkey, Vero-B4 cells (non-infected).
A further data set deals with CHIKV^Brazil. The class given is cell-based, Chikungunya virus. Particulars: MOI 0.64, RBV 410 µM (p < 0.001), HCQ 10 µM (p < 0.0001).

The text below walks through data of article PMC8960095 (Virus Genes, 2022).

In general, IC50 refers to the concentration needed to halve the response being measured. Broadly, the CC50 is the concentration that lowers cell viability or growth by half. Usually viability stands for the share of living cells, or the viability signal relative to a control. Higher therefore signals better survival.

Like-named read-outs stand apart in the source and are kept apart here. Bounds are passed on as bounds.

Regarding `CCN(CC)CCCC(C)Nc1ccnc2cc(Cl)ccc12` (stereo not shown) [CQ, chloroquine], the IC50 in the data set on wt CHIKV (wt CHIKV) was 5 to 10.6 µM. Further, the half-maximal cytotoxic concentration (CC50) with Vero-E6 cells was above 36 µM.
On to `NC(=O)c1ncc[nH]c1=O` [T-1105], for which the CC50 in the data set on Vero cells is 571 µM; in the data set with U138 cells (read-out: CC50 (µM) U138, non-infected U138 cells, MTS after 4 days) it was above 100 µM; in the data set on Vero-B4 cells it was above 100 µM. In addition, the “cell damage in toxicity testing” value with U138 cells is “Neither T-1105 nor HCQ led to significant cell damage”. The IC50 in data set [1] is 7 to 47 µM. Further, the “dose-dependent inhibition of CPE / antiviral effect in U138” value in the data set with wt CHIKV^Brazil [2] was “dose-dependent effect”. Moreover, in the data set with wt CHIKV^Brazil [3], the “dose-dependent inhibition of CPE / efficacy in Vero-B4” value is listed as “no dose-dependent efficacy”.
In the case of `CCN(CCO)CCCC(C)Nc1ccnc2cc(Cl)ccc12` (stereo not shown) [Hydroxychloroquine, hydroxychloroquine], the “cell damage in toxicity testing” value in the data set on U138 cells is recorded as “Neither T-1105 nor HCQ led to significant cell damage”. Further, the CC50 at 4 days worked out at 35.5 µM in the data set “Toxicity assay [4]” and 49.6 µM in “Toxicity assay [5]”. Besides, the IC50 is 4.14 µM in the data set on wt CHIKV^Brazil [2] and 18.3 µM in the data set on wt CHIKV^Brazil [3] (Chikungunya virus, 96 h, read-out: IC50 (µM) Vero-B4). For the same compound, the “dose-dependent inhibition of CPE / antiviral effect in U138” value with wt CHIKV^Brazil [2] is recorded as “dose-dependent inhibition of CPE”. In the data set on CHIKV^Brazil, the “protection of U138 cells from CPE by wt CHIKV^Brazil compared with CHIKV^Ross” value was “significantly better”. In addition, the “dose-dependent inhibition of CPE / efficacy in Vero-B4” value in the data set on wt CHIKV^Brazil [3] is “dose-dependent inhibition of CPE”.
Consider `NC(=O)c1ncn([C@@H]2O[C@H](CO)[C@@H](O)[C@H]2O)n1` [Ribavirin, ribavirin], for which the CC50 at 4 days in the data set “Toxicity assay [4]” was above 500 µM; in the data set “Toxicity assay [5]”, above 1000 µM. The viability at 4 days, 410 µM in the data set “Toxicity assay [4]” came to 70.4 ± 13.1%. Moreover, the IC50 in the data set with wt CHIKV^Brazil [2] is 166 µM; with wt CHIKV (comparable experiments in Vero-E6 cells), 424 to 766 µM; with wt CHIKV (wt CHIKV) it was 424 µM. Moreover, the “dose-dependent inhibition of CPE / antiviral effect in U138” value with wt CHIKV^Brazil [2] was “dose-dependent inhibition of CPE”. Further, the “protection of U138 cells from CPE by wt CHIKV^Brazil compared with CHIKV^Ross” value in the data set on CHIKV^Brazil was “significantly better”. Moreover, the surviving cells in the data set with wt CHIKV^Brazil [3] (1000 µM RBV (highest concentration), infected Vero-B4 cells, at MOI 0.325) turned out to be 37.55 ± 6.15%. Besides, the “dose-dependent inhibition of CPE / efficacy in Vero-B4” value in the data set on wt CHIKV^Brazil [3] is given as “dose-dependent inhibition of CPE”. For the same compound, the CC50 with Vero-E6 cells is above 500 µM.
